From patent EP2371816A1, “Aminocyclohexenone, their preparation and use as medicament against oxidative stress” (ABIOGEN PHARMA S.p.A., priority 2010, dated 2011)

How the values were obtained:
C6 cells (rat glioma) = assay: In vitro inhibition of CHP-induced oxidative stress (DCF fluorescence) in C6 cells; format: cell-based; details: 500 µM CHP, compound 4, 20, 100 and 500 µM, 30 minutes at 37 °C, range given for both cell lines together
Experimental: (§1) The method used was essentially the one reported by Rüweler M. et al. ("Inhibition of peroxide-induced radical generation by plant polyphenols in C6 astroglioma cells" (2008) Toxicol in vitro 22, 1377-81), with a few minor modifications.
(§2) The cells were seeded in phenol-red free DMEM (Sigma Aldrich) into 96-well plates with 5% FBS and 20 mM HEPES at a density of 40,000 cells/well. After 48 hours, the medium was substituted by HBSS (Hanks' Balanced Salt Solution, Sigma) containing 10 µM of dihydro-2',7'-dichlorofluorescein diacetate (H2DCF-DA, Sigma Aldrich) and incubated in darkness for 30 minutes at 37 °C, in order to load the cells with fluorescent dye. H2DCF-DA was hydrolyzed enzymatically by the intracellular esterases to form non-fluorescent H2DCF, which was then rapidly oxidized to form 2',7'-dichlorofluorescein (DCF) being highly fluorescent in the presence of reactive species (RS). The intensity of DCF fluorescence is directly proportional to the amount of RS formed.
(§3) After carrying out two washes, the cells were exposed to 500 µM of CHP and various concentrations (4, 20, 100 and 500 µM) of the compounds of the invention for 30 minutes at 37 °C. Fluorescence was then measured, after cell washing, by a microplate reader at an excitation wavelength of 485 nm and an emission wavelength of 535 nm.
(§4) Six wells per plate per concentration of test composition (compound + CHP) and per control (HBSS without CHP) were measured and 12 wells were used as reference for CHP-induced stress. In addition, each 96-well plate contained 6 wells that received the highest concentration of the tested compounds without CHP, to investigate whether the compounds of the invention alone were able to induce cellular radical formation.
(§5) When using this assay, it should be borne in mind that DCF fluorescence is a generalized indicator of oxidative stress rather than of any particular reactive species, i.e. it is not a direct assay for H2O2 or other reactive species (Halliwell B, Whiteman M. (2004) "Measuring reactive species and oxidative damage in vivo and in cell culture: how should you do it and what do the results mean?" Br. J. Pharmacol. 142 231-255). Therefore, when an increase in DCF fluorescence induced by exposure of cells to CHP was measured, as was undertaken in these assays, it was not possible to deduce which reactive species was responsible. Inhibition of CHP-induced fluorescence was evaluated by means of different concentrations of the compounds of the invention and comparative compounds such as Trolox and edaravone.

[1] = Acute toxicity study, intraperitoneal single dose (OECD guideline no. 420); format: in vivo; details: result in words, with reference to Example 13
Experimental: This study was carried out with the purpose of investigating the toxicity of a single dose of the listed compounds administered to ICR (CD-1) female mice. According to the current OECD guideline no.
The mice used were all female and were treated by intraperitoneal injection administration. The animals were observed individually and regularly for the first 4 hours and within 24 hours after administration, and then twice a day for the whole observation period. As soon as the animals were stabilized, observations at the weekend were undertaken once only during the day.
The evaluated parameters included the survival, body weight development, variations in skin and fur, changes in ocular, conjunctival and buccal mucous membranes, changes in activities of the respiratory, circulatory, autonomous and central nervous systems, changes in somatomotor activity and in behaviour.
Any appearance of tremors, convulsions, salivation, diarrhea, lethargy, drowsiness and coma were attentively and regularly monitored. At the end of the observation period, a post-mortem was carried out on all the animals.

[2] = tested on: BAEC cells (bovine aortic endothelial); assay: In vitro inhibition of CHP-induced oxidative stress (DCF fluorescence) in BAEC cells; format: cell-based; details: 500 µM CHP, compound 4, 20, 100 and 500 µM, 30 minutes at 37 °C, range given for both cell lines together
Experimental: as §1, §2, §3, §4, §5

[3] = TEAC method (Trolox Equivalent Antioxidant Capacity Assay); details: ratio of gradient to gradient of reference (trolox); 37 °C, 650 nm, pH 4.5
From the text: This assay is used to measure the total antioxidant activity of pure substances, biological fluids and plant compounds and is based on the reaction of antioxidants with the cation radical ABTS^˙+ (2,2'-azinobis(3-ethylbenzothiazolin-6-sulphonate)). This cation radical is metastable and has to be generated just before the experiment by reacting ABTS with hydrogen peroxide in the presence of HRP.
This radical can be reduced, with consequent loss of absorbance, by an antioxidant whose scavenging capacity can be measured spectrophotometrically at 650 nm. The test is carried out at 37 °C and the results are obtained from a comparison with Trolox (a synthetic antioxidant and hydrophilic analogue of vitamin E).
The ABTS solution S1 was prepared as follows: • 20 mg of ABTS were added to 50 mM of citric acid buffer (40 ml) at pH=4.5 and to the resulting solution there was added an aqueous solution of HRP (4.4 mg, 400 µl) and an aqueous solution of H2O2 (10 µl of a 30% solution diluted with 16.3 ml of water).
For each of the compounds (2), (6) and (7), as synthesized above, there was prepared a 600 µM solution in water, methanol or DMSO according to its solubility, as well as a Trolox solution as reference.
Each solution was diluted to produce 6 solutions each at a concentration between 25 µM and 300 µM. From each of the diluted and divided solutions, there were withdrawn 20 µl to which 200 µl of solution S1 were then added.
The decrease in absorbance of each solution thus obtained was monitored at 650 nm until a stable value was reached (about 90 minutes).
For each set of 6 solutions and for the reference trolox solution, the absorption was given in graph form as a function of the amount of compound (nmol) in the solution. The gradient of the straight line obtained by linear interpolation was determined according to the least squares method. The TEAC value of each compound of the invention is given in the table below and is expressed as the ratio between the gradient of the resulting straight line and the gradient of the reference (trolox) straight line.

CC1(C)CC(=O)C=C(NCCN2CCCCC2)C1 [(1), 5,5-dimethyl-3-(2-(piperidin-1-yl)ethylamino)cyclohex-2-enone]
Inhibition of CHP-induced fluorescence (C6 cells (rat glioma)): effective
toxicity evaluation in vivo (tolerability) [1]: well tolerated
Inhibition of CHP-induced fluorescence [2]: effective

O=C1C=C(NCCN2CCCCC2)CC(c2ccccc2)C1 (stereo not shown) [(3), 5-phenyl-3-(2-(piperidin-1-yl)ethylamino)cyclohex-2-enone]
Inhibition of CHP-induced fluorescence (C6 cells (rat glioma)): effective
Inhibition of CHP-induced fluorescence [2]: effective

CC1(C)CC(=O)C=C(NN2CCCCC2)C1 [(6), 5,5-dimethyl-3-(piperidin-1-ylamino)cyclohex-2-enone]
toxicity evaluation in vivo (tolerability) [1]: well tolerated
TEAC [3]: 1.2
